The values that follow come from PMC5218480 (PLoS ONE, 2017).

The test has as its system MV-4-11 cells. The test can be described thus: Gene expression microarray analysis (Affymetrix PrimeView) and GSEA. In kind it is cell-based, human. Further details: RFU PODN (11730768_x_at) / Fold change /veh PODN (11730768_x_at) / RFU LINC00158 (11744669_a_at) / Fold change /veh LINC00158 (11744669_a_at) / RFU DUSP10 (11751237_a_at) / Fold change /veh DUSP10 (11751237_a_at) / RFU ID3 (11757404_x_at) / Fold change /veh ID3 (11757404_x_at) / RFU PLEKHG5 (11737974_s_at) / Fold change /veh PLEKHG5 (11737974_s_at) / RFU LRRC4B (11730491_at) / Fold change /veh LRRC4B (11730491_at) / RFU GIMAP4 (11747438_a_at) / Fold change /veh GIMAP4 (11747438_a_at) / RFU KRT8 (11758183_x_at) / Fold change /veh KRT8 (11758183_x_at) / RFU CNN1 (11734310_a_at) / Fold change /veh CNN1 (11734310_a_at) / RFU VPS37D (11726825_at) / Fold change /veh VPS37D (11726825_at) / RFU C10orf10 (11716522_x_at) / Fold change /veh C10orf10 (11716522_x_at) / RFU KIR2DL2 /// KIR2DL4 /// KIR2DL5A /// KIR2DL5B /// KIR2DS1 /// KIR2DS2 /// KIR2DS3 /// KIR2DS4 /// KIR3DL3 /// KIR3DL3 /// KIR3DS1 (11738374_at) / Fold change /veh KIR2DL2 /// KIR2DL4 /// KIR2DL5A /// KIR2DL5B /// KIR2DS1 /// KIR2DS2 /// KIR2DS3 /// KIR2DS4 /// KIR3DL3 /// KIR3DL3 /// KIR3DS1 (11738374_at) / RFU C1QL1 (11718748_at) / Fold change /veh C1QL1 (11718748_at) / RFU TMPRSS4 (11747572_a_at) / Fold change /veh TMPRSS4 (11747572_a_at) / RFU HAMP (11756126_x_at) / Fold change /veh HAMP (11756126_x_at) / RFU RNFT2 (11725882_a_at) / Fold change /veh RNFT2 (11725882_a_at) / RFU NR4A2 (11747474_a_at) / Fold change /veh NR4A2 (11747474_a_at) / RFU ABCC12 (11746883_a_at) / Fold change /veh ABCC12 (11746883_a_at) / RFU TMEM136 (11760407_x_at) / Fold change /veh TMEM136 (11760407_x_at) / RFU CLDN22 /// WWC2 (11732394_at) / Fold change /veh CLDN22 /// WWC2 (11732394_at) / RFU HLA-DPB1 (11760878_x_at) / Fold change /veh HLA-DPB1 (11760878_x_at) / RFU SPINT1 (11716480_a_at) / Fold change /veh SPINT1 (11716480_a_at) / RFU GAP43 (11754022_s_at) / Fold change /veh GAP43 (11754022_s_at) / RFU A4GNT (11735810_at) / Fold change /veh A4GNT (11735810_at) / RFU PRB3 (11715151_x_at) / Fold change /veh PRB3 (11715151_x_at) / RFU TUBB4B (11761932_at) / Fold change /veh TUBB4B (11761932_at) / RFU CAPN14 (11732068_a_at) / Fold change /veh CAPN14 (11732068_a_at) / RFU TMCC2 (11721928_a_at) / Fold change /veh TMCC2 (11721928_a_at) / RFU IRGQ (11745062_a_at) / Fold change /veh IRGQ (11745062_a_at) / RFU FAM174B (11720279_a_at) / Fold change /veh FAM174B (11720279_a_at) / RFU TMPRSS4 (11748680_a_at) / Fold change /veh TMPRSS4 (11748680_a_at) / RFU FAM212B (11763350_a_at) / Fold change /veh FAM212B (11763350_a_at) / RFU PLEKHG5 (11743358_a_at) / Fold change /veh PLEKHG5 (11743358_a_at) / RFU ZSCAN30 (11745921_a_at) / Fold change /veh ZSCAN30 (11745921_a_at) / RFU CMKLR1 (11741424_a_at) / Fold change /veh CMKLR1 (11741424_a_at) / RFU LOC101060620 /// MAPK8IP1 (11723275_at) / Fold change /veh LOC101060620 /// MAPK8IP1 (11723275_at) / RFU SPTSSB (11747773_x_at) / Fold change /veh SPTSSB (11747773_x_at) / RFU PRSS12 (11739890_at) / Fold change /veh PRSS12 (11739890_at) / RFU BIN1 (11741810_x_at) / Fold change /veh BIN1 (11741810_x_at) / RFU WNT11 (11732464_a_at) / Fold change /veh WNT11 (11732464_a_at) / RFU C10orf10 (11716521_a_at) / Fold change /veh C10orf10 (11716521_a_at) / RFU C5orf56 (11738089_at) / Fold change /veh C5orf56 (11738089_at) / RFU CYB561 (11721691_x_at) / Fold change /veh CYB561 (11721691_x_at) / RFU ANKRD19P (11752326_a_at) / Fold change /veh ANKRD19P (11752326_a_at) / RFU OR2T12 /// OR2T33 /// OR2T8 (11738714_s_at) / Fold change /veh OR2T12 /// OR2T33 /// OR2T8 (11738714_s_at) / RFU VCAN (11748164_a_at) / Fold change /veh VCAN (11748164_a_at) / RFU JSRP1 (11732532_at) / Fold change /veh JSRP1 (11732532_at) / RFU KRTAP10-11 (11738290_x_at) / Fold change /veh KRTAP10-11 (11738290_x_at) / RFU MYO3A (11730013_a_at) / Fold change /veh MYO3A (11730013_a_at) / RFU EBF3 (11725865_a_at) / Fold change /veh EBF3 (11725865_a_at) / RFU CAMK2N1 (11719241_x_at) / Fold change /veh CAMK2N1 (11719241_x_at) / RFU C5orf56 (11738088_a_at) / Fold change /veh C5orf56 (11738088_a_at) / RFU OLFML3 (11715873_a_at) / Fold change /veh OLFML3 (11715873_a_at) / RFU LOC100653217 /// NTM (11731650_a_at) / Fold change /veh LOC100653217 /// NTM (11731650_a_at) / RFU MAPK11 (11762145_a_at) / Fold change /veh MAPK11 (11762145_a_at) / RFU FIZ1 (11724087_x_at) / Fold change /veh FIZ1 (11724087_x_at) / RFU OASL (11726364_x_at) / Fold change /veh OASL (11726364_x_at) / RFU SOX15 (11748057_x_at) / Fold change /veh SOX15 (11748057_x_at) / RFU CD79A (11719716_a_at) / Fold change /veh CD79A (11719716_a_at) / RFU HIST1H1D (11736915_at) / Fold change /veh HIST1H1D (11736915_at) / RFU CASKIN2 (11723855_a_at) / Fold change /veh CASKIN2 (11723855_a_at) / RFU LOC730098 (11760151_x_at) / Fold change /veh LOC730098 (11760151_x_at) / RFU OR4N2 (11742367_at) / Fold change /veh OR4N2 (11742367_at) / RFU PRRT2 (11749266_a_at) / Fold change /veh PRRT2 (11749266_a_at) / RFU SNX32 (11753110_a_at) / Fold change /veh SNX32 (11753110_a_at) / RFU CDHR5 (11726645_a_at) / Fold change /veh CDHR5 (11726645_a_at) / RFU RCAN1 (11760418_a_at) / Fold change /veh RCAN1 (11760418_a_at) / RFU FAM167A (11723789_a_at) / Fold change /veh FAM167A (11723789_a_at) / RFU FAM26E (11764081_at) / Fold change /veh FAM26E (11764081_at) / RFU ISYNA1 (11749810_s_at) / Fold change /veh ISYNA1 (11749810_s_at) / RFU ACY1 (11761880_at) / Fold change /veh ACY1 (11761880_at) / RFU 11764098_at / Fold change /veh 11764098_at / RFU SAMD14 (11745864_x_at) / Fold change /veh SAMD14 (11745864_x_at) / RFU NPB (11741838_a_at) / Fold change /veh NPB (11741838_a_at) / RFU TMPRSS6 (11731388_a_at) / Fold change /veh TMPRSS6 (11731388_a_at) / RFU KRTAP10-2 (11738614_at) / Fold change /veh KRTAP10-2 (11738614_at) / RFU ARHGAP8 /// PRR5-ARHGAP8 (11727945_x_at) / Fold change /veh ARHGAP8 /// PRR5-ARHGAP8 (11727945_x_at) / RFU KRTAP5-7 /// NADSYN1 (11734609_at) / Fold change /veh KRTAP5-7 /// NADSYN1 (11734609_at) / RFU RASL12 (11751679_a_at) / Fold change /veh RASL12 (11751679_a_at) / RFU CDKN2B (11736163_a_at) / Fold change /veh CDKN2B (11736163_a_at) / RFU PRF1 (11729649_at) / Fold change /veh PRF1 (11729649_at) / RFU, ZNF638 /// ZNF638-IT1 / Fold change vs veh, ZNF638 /// ZNF638-IT1 / RFU, PANK3 / Fold change vs veh, PANK3 / RFU, SH3YL1 / Fold change vs veh, SH3YL1 / RFU, ZEB2 / Fold change vs veh, ZEB2 / RFU, NRIP1 / Fold change vs veh, NRIP1 / RFU, PTTG1IP / Fold change vs veh, PTTG1IP / RFU, CAPN2 / Fold change vs veh, CAPN2 / RFU, MED14 / Fold change vs veh, MED14 / RFU, SNORA58 / Fold change vs veh, SNORA58 / RFU, C1orf63 / Fold change vs veh, C1orf63 / RFU, LRRFIP1 / Fold change vs veh, LRRFIP1 / RFU, NDUFAF7 / Fold change vs veh, NDUFAF7 / RFU, SLC12A2 / Fold change vs veh, SLC12A2 / RFU, IBTK / Fold change vs veh, IBTK / RFU, ESF1 / Fold change vs veh, ESF1 / Fold change vs veh, TMEM50B / RFU, TAOK1 / Fold change vs veh, TAOK1 / RFU, ACBD3 / Fold change vs veh, ACBD3 / RFU, TMA16 / Fold change vs veh, TMA16 / RFU, RWDD3 / Fold change vs veh, RWDD3 / RFU, BCAT1 / Fold change vs veh, BCAT1 / RFU, EDEM3 / Fold change vs veh, EDEM3 / RFU, TMEM33 / Fold change vs veh, TMEM33 / RFU, WDR75 / Fold change vs veh, WDR75 / RFU, AHCTF1 / Fold change vs veh, AHCTF1 / RFU, TFRC / Fold change vs veh, TFRC / RFU, ZDHHC17 / Fold change vs veh, ZDHHC17 / RFU, NOM1 / Fold change vs veh, NOM1 / RFU, ARL8B / Fold change vs veh, ARL8B / RFU, ZBTB11 / Fold change vs veh, ZBTB11 / RFU, TAMM41 / Fold change vs veh, TAMM41 / RFU, KIAA1704 /// LOC100996395 / Fold change vs veh, KIAA1704 /// LOC100996395 / RFU, ING1 / Fold change vs veh, ING1 / RFU, TRMT61B / Fold change vs veh, TRMT61B / RFU, FUBP3 / Fold change vs veh, FUBP3 / RFU, TP53 / Fold change vs veh, TP53 / RFU, TNKS2 / Fold change vs veh, TNKS2 / RFU, ZFP14 / Fold change vs veh, ZFP14 / RFU, ACTR2 / Fold change vs veh, ACTR2 / RFU, PPP3R1 / Fold change vs veh, PPP3R1 / RFU, PIK3R1 / Fold change vs veh, PIK3R1 / RFU, HNRNPA1 / Fold change vs veh, HNRNPA1 / RFU, RNF170 / Fold change vs veh, RNF170 / RFU, ZNF28 / Fold change vs veh, ZNF28 / RFU, RNGTT / Fold change vs veh, RNGTT / RFU, OGT / Fold change vs veh, OGT / RFU, BRD1 / Fold change vs veh, BRD1 / RFU, MARS / Fold change vs veh, MARS / RFU, ZNF655 / Fold change vs veh, ZNF655 / RFU, FAHD1 / Fold change vs veh, FAHD1 / RFU, BDP1 / Fold change vs veh, BDP1 / RFU, LRRCC1 / Fold change vs veh, LRRCC1 / RFU, ARID1A / Fold change vs veh, ARID1A / RFU, ZNF146 / Fold change vs veh, ZNF146 / RFU, ZNF330 / Fold change vs veh, ZNF330 / RFU, GPN3 / Fold change vs veh, GPN3 / RFU, C9orf123 / Fold change vs veh, C9orf123 / RFU, N4BP2L2 / Fold change vs veh, N4BP2L2 / RFU, ARFIP1 / Fold change vs veh, ARFIP1 / RFU, FAM179B / Fold change vs veh, FAM179B / RFU, BCL10 / Fold change vs veh, BCL10 / RFU, UHRF1BP1L / Fold change vs veh, UHRF1BP1L / RFU, BET1 / Fold change vs veh, BET1 / RFU, CNOT2 / Fold change vs veh, CNOT2 / RFU, ZNF268 / Fold change vs veh, ZNF268 / Fold change vs veh, ZNF507 / RFU, DGCR2 / Fold change vs veh, DGCR2 / RFU, WDSUB1 / Fold change vs veh, WDSUB1 / Fold change vs veh, HSP90B1 /// MIR3652 / RFU, ADSS / Fold change vs veh, ADSS / RFU, GK / Fold change vs veh, GK / RFU, ZNF148 / Fold change vs veh, ZNF148 / RFU, TAF9 / Fold change vs veh, TAF9 / RFU, SLC1A5 / Fold change vs veh, SLC1A5 / RFU, SLMO2 / Fold change vs veh, SLMO2 / RFU, ABCC4 / Fold change vs veh, ABCC4 / RFU, LOC101060439 /// RAP1B / Fold change vs veh, LOC101060439 /// RAP1B / RFU, RFX7 / Fold change vs veh, RFX7 / RFU, GTPBP10 / Fold change vs veh, GTPBP10 / RFU, CNEP1R1 / Fold change vs veh, CNEP1R1 / RFU, BIVM-ERCC5 /// ERCC5 / Fold change vs veh, BIVM-ERCC5 /// ERCC5 / RFU, ILF3 / Fold change vs veh, ILF3 / RFU 11762660_at / Fold change /veh 11762660_at / RFU VCAN (11757783_s_at) / Fold change /veh VCAN (11757783_s_at) / RFU DDX43 (11728927_at) / Fold change /veh DDX43 (11728927_at) / RFU KRT8 (11758188_x_at) / Fold change /veh KRT8 (11758188_x_at) / RFU NKD1 (11759106_at) / Fold change /veh NKD1 (11759106_at) / RFU SRD5A1 (11742802_a_at) / Fold change /veh SRD5A1 (11742802_a_at) / RFU TPSAB1 /// TPSB2 (11721975_s_at) / Fold change /veh TPSAB1 /// TPSB2 (11721975_s_at) / RFU GSTM3 (11746129_a_at) / Fold change /veh GSTM3 (11746129_a_at) / RFU IL23R (11737362_x_at) / Fold change /veh IL23R (11737362_x_at) / RFU TMEM51 (11727254_a_at) / Fold change /veh TMEM51 (11727254_a_at) / RFU PIWIL2 (11732686_x_at) / Fold change /veh PIWIL2 (11732686_x_at) / RFU ORM1 (11744905_x_at) / Fold change /veh ORM1 (11744905_x_at) / RFU CCDC152 (11743942_at) / Fold change /veh CCDC152 (11743942_at) / RFU ECM1 (11717891_a_at) / Fold change /veh ECM1 (11717891_a_at) / RFU IL23R (11748794_a_at) / Fold change /veh IL23R (11748794_a_at) / RFU TNFAIP8L3 (11732012_x_at) / Fold change /veh TNFAIP8L3 (11732012_x_at) / RFU MBOAT4 (11741988_at) / Fold change /veh MBOAT4 (11741988_at) / RFU 11764193_at / Fold change /veh 11764193_at / RFU TMEM53 (11763286_at) / Fold change /veh TMEM53 (11763286_at) / RFU MAGEB2 (11727129_at) / Fold change /veh MAGEB2 (11727129_at) / RFU TMEM200A (11744735_a_at) / Fold change /veh TMEM200A (11744735_a_at) / RFU CCDC152 (11751479_a_at) / Fold change /veh CCDC152 (11751479_a_at) / RFU FAM211A (11726209_a_at) / Fold change /veh FAM211A (11726209_a_at) / RFU RGS16 (11746705_a_at) / Fold change /veh RGS16 (11746705_a_at) / RFU VCAN (11755009_s_at) / Fold change /veh VCAN (11755009_s_at) / RFU RHOB (11743442_s_at) / Fold change /veh RHOB (11743442_s_at) / RFU RGS16 (11720943_a_at) / Fold change /veh RGS16 (11720943_a_at) / RFU RGS16 (11720944_at) / Fold change /veh RGS16 (11720944_at) / RFU, VPS4B / Fold change vs veh, VPS4B / RFU, CREB1 / Fold change vs veh, CREB1 / RFU, DNAJC13 / Fold change vs veh, DNAJC13 / RFU, GNAQ / Fold change vs veh, GNAQ / RFU, CDK5R1 / Fold change vs veh, CDK5R1 / RFU, ZRANB3 / Fold change vs veh, ZRANB3 / RFU, CUL4A / Fold change vs veh, CUL4A / RFU, CCNY / Fold change vs veh, CCNY / RFU, UFL1 / Fold change vs veh, UFL1 / RFU, COG3 / Fold change vs veh, COG3 / RFU, DIAPH2 / Fold change vs veh, DIAPH2 / RFU, SKA2 / Fold change vs veh, SKA2 / RFU, AFF3 / Fold change vs veh, AFF3 / RFU, LMF1 / Fold change vs veh, LMF1 / RFU, IPO11 / Fold change vs veh, IPO11 / RFU, DFFB / Fold change vs veh, DFFB / RFU, FOXP1 / Fold change vs veh, FOXP1 / RFU, CARD8 / Fold change vs veh, CARD8 / RFU, STRN3 / Fold change vs veh, STRN3 / RFU, ADK / Fold change vs veh, ADK / RFU, RASSF2 / Fold change vs veh, RASSF2 / RFU, WIPF1 / Fold change vs veh, WIPF1 / RFU, LARP1B / Fold change vs veh, LARP1B / RFU, RASA1 / Fold change vs veh, RASA1 / RFU, RB1 / Fold change vs veh, RB1 / RFU, PPFIA1 / Fold change vs veh, PPFIA1 / RFU, MAT2A / Fold change vs veh, MAT2A / RFU, CCT5 / Fold change vs veh, CCT5 / RFU, WDR92 / Fold change vs veh, WDR92 / RFU, CUX1 / Fold change vs veh, CUX1 / RFU, TTC7A / Fold change vs veh, TTC7A / RFU, TMEM135 / Fold change vs veh, TMEM135 / RFU, DEPTOR / Fold change vs veh, DEPTOR / RFU, CPM / Fold change vs veh, CPM / RFU, DNAJB6 / Fold change vs veh, DNAJB6 / RFU, CACNA2D3 / Fold change vs veh, CACNA2D3 / RFU, DTX4 / Fold change vs veh, DTX4 / RFU, TFCP2 / Fold change vs veh, TFCP2 / RFU, GMCL1 /// GMCL1P1 / Fold change vs veh, GMCL1 /// GMCL1P1 / RFU, AEBP2 / Fold change vs veh, AEBP2 / RFU, SNHG1 /// SNORD22 /// SNORD25 /// SNORD26 /// SNORD27 /// SNORD28 /// SNORD29 /// SNORD31 / Fold change vs veh, SNHG1 /// SNORD22 /// SNORD25 /// SNORD26 /// SNORD27 /// SNORD28 /// SNORD29 /// SNORD31 / Fold change (Aza/veh), C12orf56 (ProbeSet 11735607_a_at) / Fold change (ACY-1035/veh), C12orf56 (ProbeSet 11735607_a_at) / Fold change (Aza/veh), FGFR1OP (ProbeSet 11751329_s_at) / Fold change (ACY-1035/veh), FGFR1OP (ProbeSet 11751329_s_at) / Fold change (Aza/veh), VPS36 (ProbeSet 11739960_a_at) / Fold change (ACY-1035/veh), VPS36 (ProbeSet 11739960_a_at) / RFU SYPL1 (11715823_x_at) / Fold change /veh SYPL1 (11715823_x_at) / RFU IGFBP7 (11715501_s_at) / Fold change /veh IGFBP7 (11715501_s_at) / RFU REEP3 (11722064_at) / Fold change /veh REEP3 (11722064_at) / RFU IGLL1 (11728026_x_at) / Fold change /veh IGLL1 (11728026_x_at): dose or concentration left out as unconfirmed. As to conditions: ProbeSet 11732306_x_at; LIST D.

For the compound `Nc1ccc(-c2cccs2)cc1NC(=O)c1ccc2c(c1)cc(C1CC1)n2CCN1CCOCC1` [ACY-1035], the “Fold change vs veh, CREB1” value is on record as 0.87.
